Data on 11 molecules can be found in patent US4737497A, “Bis-dioxopiperazine derivatives, antitumor agents comprising them and compositions containing them” (Zenyaki Kogyo Kabushiki Kaisha, priority 1983, dated 1988).

One data set has as its system Lewis lung carcinoma. Kind of data set: Growth inhibition test on Lewis lung carcinoma. In kind it is in vivo, mice (BDF1 (C57BL/6×DBA/2)). The note with it: Mus musculus, po, 480 h, orally, once a day for 8 days, tumor weight on 20th day, read-out: G.I. (growth inhibition); for inhibition in vivo at 60 mg/kg: 60 mg/kg daily; for inhibition in vivo at 40 mg/kg: 40 mg/kg daily. The protocol: The treated group to which the compound of the present invention was administered consisted of seven mice, while the control group consisted of ten mice. Six weeks old male mice [BDF1 (C57BL/6×DBA/2), 25±2 g of body weight] were employed as host animals.
Tumor cells (5×10^5) of Lewis lung carcinoma were transplanted subcutaneously in inguinal region of each mouse. The treatment began one day after the transplantation and the prescribed dose of each test compound was administered orally to the mice once a day for 8 days.
On the 20th day after the transplantation, the tumors of all the mice were excised and weighed. Antitumor activity of the test compound was evaluated by the rate of growth inhibition (G.I.%) which was calculated with the following formula. [formula] T: mean tumor weight of treated mice C: mean tumor weight of control mice

The next data set has as its system B-16 melanoma. Kind of data set: Growth inhibition test on B-16 melanoma. The class given is in vivo, mice (BDF1 (C57BL/6×DBA/2)). To be noted: Mus musculus, B16, po, 480 h, orally, once a day for 8 days, tumor weight on 20th day, read-out: G.I. (growth inhibition); for inhibition in vivo at 60 mg/kg: 60 mg/kg daily; for inhibition in vivo at 40 mg/kg: 40 mg/kg daily; for inhibition in vivo at 20 mg/kg: 20 mg/kg daily. As for the experimental part:
The treated group to which the compound of the present invention was administered consisted of seven mice, while the control group consisted of ten mice. Six weeks old male mice [BDF1 (C57BL/6×DBA/2), 25+2 g of body weight] were employed as host animals.
Tumor cells (5×10^5) of B-16 melanoma were transplanted subcutaneously in inguinal region of each mouse. The treatment began one day after the transplantation and the prescribed dose of each test compound was administered orally to the mice once a day for 8 days.
On the 20th day after the transplantation, the tumors of all the mice were excised and weighed. Antitumor activity of the test compound was evaluated by the rate of growth inhibition (G.I.%) which was calculated in the same manner as used in the animal test on Lewis lung carcinoma.

The subject of data set [1] is Colon adenocarcinoma No. 38. Kind of data set: Growth inhibition test on Colon adenocarcinoma No. 38. In kind it is in vivo, mice (BDF1). To be noted: orally, once a day for 8 days, tumor weight on 30th day. As for the experimental part: The treated group to which the compound of the present invention was administered consisted of seven mice, while the control group consisted of ten mice. Six weeks old male mice [BDF1 (G57BL/6×DBA/2), 25±2 g of body weight] were employed as hosts animals.
Tumor cells (40 mg of fragment) of Colon adenocarcinoma No. 38 were transplanted subcutaneously in inguinal region of each mouse. The treatment began one day after the transplantation and the prescribed dose of each test compound was administered orally to the mice once a day for 8 days.
On the 30th day after the transplantaion, the tumors of all the mice were excised and weighed. Antitumor activity of the test compound was evaluated by the rate of growth inhibition (G.I.%) which was calculated in the same manner as used in the animal test on Lewis lung carcinoma.

The next data set concerns Sarcoma 37. Kind of data set: Growth inhibition test on Sarcoma 37. The class given is in vivo, mice (K-M). The note with it: once a day for 10 days; for G.I. (growth inhibition): tumor weight on 12th day; for ED50: Mus musculus, 288 h. The protocol: The treated group to which the compound of the present invention was administered consisted of eight mice, while the control group consisted of sixteen mice. Four weeks old female mice (K-M, 20±2 g of body weight) were employed as host animals.
Tumor cells (0.2 ml of 1:5 suspension) of Sarcoma 37 were transplanted subcutaneously in the flank of each mouse. The treatment began one day after the transplantation and the prescribed dose (1.56-50 mg/kg) of dl-1,2-bis(4-morpholinomethyl-3,5-dioxopiperazin-1-yl)-propane was administered intraperitoneally (i.p.) or orally (p.o.) to the mice once a day for 10 days.
(§1) On the 12th day after the transplantation, the tumors of all the mice were excised and weighed. Antitumor activity of the test compound was evaluated by the rate of growth inhibition (G.I.%) which was calculated in the same manner as used in the animal test on Lewis lung carcinoma.

Another data set relates to Hepatoma 22. Kind of data set: Growth inhibition test on Hepatoma 22. In kind it is in vivo, mice (K-M). To be noted: 25 mg/kg daily, orally, once a day for 9 days; tumor weight on 12th day. The protocol:
The treated group to which the compound of the present invention was administered consisted of ten mice, while the control group consisted of twenty mice. Four weeks old female mice (K-M, 20±2 g of body weight) were employed as host animals.
Tumor cells (a 2 mm^3 fragment) of Hepatoma 22 were transplanted subcutaneously in the flank of each mouse. The treatment began one day after the transplantation and the prescribed dose of the test compound was administered orally to the mice once a day for 9 days.
as §1

Data set [2] can be described thus: Animal test on acute toxicity. To be noted: mouse, in vivo, ip; intraperitoneal, male ddY mice, observed 14 days, Litchfield-Wilcoxon method. The protocol:
The test group to which the compound of the present invention was administered consisted of ten mice. Five weeks old male mice (ddY, 23±2 g of body weight) were employed as test animals.

Data set [3] is described as follows: Animal test on subacute toxicity. To be noted: mouse, in vivo, ip; intraperitoneal, once a day for 8 days, female K-M mice, observed 14 days, Bliss-Finney method. As for the experimental part: The test group to which the compound of the present invention was administered consisted of ten mice, while the control group consisted of ten mice. Four weeks old female mice (K-M, 20±2 g of body weight) were employed as test animals.
LD50 value of the subacute toxicity was determined by the Bliss-Finney statistical method.

Another data set is described as follows: Solubility in water. In kind it is physicochemical. The note with it: 25° C.

Values after ≈ are worked out from the molar mass of the structure shown.

`CC(CN1CC(=O)N(CN2CCOCC2)C(=O)C1)N1CC(=O)N(CN2CCOCC2)C(=O)C1` (racemic) [dl-1,2-Bis(4-morpholinomethyl-3,5-dioxopiperazin-1-yl)-propane]: the values for the inhibition in vivo at 60 mg/kg with Lewis lung carcinoma and in the data set on B-16 melanoma were 89.3% and 93.8%, respectively. In addition, the “G.I. (growth inhibition)” value in data set [1] (60 mg/kg daily) turned out to be 91.6%; with Sarcoma 37 (1.56 mg/kg daily, i.p.), 33.2%; with Sarcoma 37 (3.12 mg/kg daily, i.p.), 56.1%; in the data set on Sarcoma 37 (3.12 mg/kg daily, p.o.), 39.3%; with Sarcoma 37 (6.25 mg/kg daily, i.p.) it was 72.7%; with Sarcoma 37 (6.25 mg/kg daily, p.o.) it was 68.8%. Also, the “G.I. (growth inhibition)” value is recorded as 82.4% with Sarcoma 37 (12.5 mg/kg daily, i.p.); 94.2% with Sarcoma 37 (12.5 mg/kg daily, p.o.); 94.6% in the data set on Sarcoma 37 (25 mg/kg daily, i.p.); 100% with Sarcoma 37 (25 mg/kg daily, p.o.); 100% in the data set with Sarcoma 37 (50 mg/kg daily, i.p.); 42.7% with Hepatoma 22. The figures for the ED50 in the data set with Sarcoma 37 (ip) and in the data set on Sarcoma 37 (po) were 3.1 mg/kg and 4.3 mg/kg, respectively. Moreover, the LD50 at 336 h stood at 255 mg/kg in data set [2] and 178 mg/kg in data set [3]. Further, the concentration in solution in the data set “Solubility in water” (solubility) came to 20 mg/mL (≈ 42.9 mM).

As for `CC(CN1CC(=O)N(CN2CCSCC2)C(=O)C1)N1CC(=O)N(CN2CCSCC2)C(=O)C1` (racemic) [dl-1,2-Bis(4-thiomorpholinomethyl-3,5-dioxopiperazin-1-yl)-propane], in the data set with B-16 melanoma, the inhibition in vivo at 40 mg/kg stood at 77.5%. Besides, the LD50 at 336 h in data set [2] was 330 mg/kg.

Take `CC1CC(C)CN(CN2C(=O)CN(CC(C)N3CC(=O)N(CN4CC(C)CC(C)C4)C(=O)C3)CC2=O)C1` (racemic) [dl-1,2-Bis[4-(3,5-dimethylpiperidinomethyl)-3,5-dioxopiperazin-1-yl]-propan]: the inhibition in vivo at 60 mg/kg in the data set with Lewis lung carcinoma came to 77.4%; in the data set with B-16 melanoma, 91.2%.

With `CC(CN1CC(=O)N(CN2CCN(C)CC2)C(=O)C1)N1CC(=O)N(CN2CCN(C)CC2)C(=O)C1` (racemic) [dl-1,2-Bis[4-(N-methylpiperazinomethyl)-3,5-dioxopiperazin-1-yl]-propane], in the data set on Lewis lung carcinoma, the inhibition in vivo at 60 mg/kg came out at 53.5%. The LD50 at 336 h in data set [2] lay within 300 to 400 mg/kg.

Turning to `CC(CN1CC(=O)N(CN2CCN(c3ccccc3)CC2)C(=O)C1)N1CC(=O)N(CN2CCN(c3ccccc3)CC2)C(=O)C1` (racemic) [dl-1,2-Bis[4-(N-phenylpiperazinomethyl)-3,5-dioxopiperazin-1-yl]-propane], the inhibition in vivo at 40 mg/kg in the data set with Lewis lung carcinoma was 89%. Moreover, in the data set on B-16 melanoma, the inhibition in vivo at 20 mg/kg came to 71%. This molecule also displayed an LD50 at 336 h in data set [2] of 100 mg/kg.

For the molecule `CC(CN1CC(=O)N(CN2CCOCC2)C(=O)C1)N1CC(=O)NC(=O)C1` (racemic) [dl-1-(4-Morpholinomethyl-3,5-dioxopiperazin-1-yl)-2-(3,5-dioxopiperazin-1-yl)-propane], the inhibition in vivo at 40 mg/kg in the data set with Lewis lung carcinoma amounted to 83.9%; in the data set with B-16 melanoma, 76.1%. In addition, in data set [1] (40 mg/kg daily), the “G.I. (growth inhibition)” value is 74.1%.

As for `CC(CN1CC(=O)N(CN2CCN(c3ccccc3)CC2)C(=O)C1)N1CC(=O)NC(=O)C1` (racemic) [dl-1-[4-(N-Phenylpiperazinomethyl)-3,5-dioxopiperazin-1-yl]-2-(3,5-dioxopiperazin-1-yl)-propane], the inhibition in vivo at 40 mg/kg with Lewis lung carcinoma came out at 76.2%. Moreover, the inhibition in vivo at 20 mg/kg in the data set on B-16 melanoma was determined as 60.8%. The “G.I. (growth inhibition)” value in data set [1] (40 mg/kg daily) came out at 93.5%. Moreover, in data set [2], the 50% lethal dose (LD50) at 336 h was greater than 350 mg/kg.

`O=C1CN(CCN2CC(=O)N(CN3CCSCC3)C(=O)C2)CC(=O)N1CN1CCSCC1` [1,2-Bis(4-thiomorpholinomethyl-3,5-dioxopiperazin-1-yl)-ethane]: the inhibition in vivo at 60 mg/kg in the data set with B-16 melanoma is 73.5%.

Take `CC1CC(C)CN(CN2C(=O)CN(CCN3CC(=O)N(CN4CC(C)CC(C)C4)C(=O)C3)CC2=O)C1` (centres unmarked) [1,2-Bis[4-(3,5-dimethylpiperidinomethyl)-3,5-dioxopiperazin-1-yl]-ethane]: the inhibition in vivo at 60 mg/kg in the data set on Lewis lung carcinoma came to 67.2%; in the data set on B-16 melanoma it was 68.9%. For the same molecule, in data set [1] (60 mg/kg daily), the “G.I. (growth inhibition)” value was 83.1%. The same molecule displayed an LD50 at 336 h in data set [2] of 400 to 500 mg/kg.

For the molecule `O=C1CN(CCN2CC(=O)N(CN3CCN(c4ccccc4)CC3)C(=O)C2)CC(=O)N1CN1CCN(c2ccccc2)CC1` [1,2-Bis[4-(N-phenylpiperazinomethyl)-3,5-dioxopiperazin-1-yl]-ethane], the inhibition in vivo at 60 mg/kg in the data set on Lewis lung carcinoma was 78.9%; with B-16 melanoma it was 91.9%. For the same molecule, the “G.I. (growth inhibition)” value in data set [1] (60 mg/kg daily) stood at 97.9%. This molecule displayed an LD50 at 336 h in data set [2] of 200 to 300 mg/kg.

For the molecule `O=C1CN(CCN2CC(=O)N(CN3CCOCC3)C(=O)C2)CC(=O)N1CN1CCOCC1` [1,2-bis(4-morpholinomethyl-3,5-dioxopiperazin-1-yl)-ethane, reference compound], the inhibition in vivo at 60 mg/kg with Lewis lung carcinoma is 22.6%; with B-16 melanoma, 48.9%. The figures for the “G.I. (growth inhibition)” value (in data set [1] (60 mg/kg daily); in the data set on Hepatoma 22) were 72.8% and 12.9%, respectively. The LD50 at 336 h in data set [2] was found to be 280 mg/kg; in data set [3], 59.3 mg/kg.
